Assay results from patent US8962596B2 (Array BioPharma Inc., priority 2010, dated 2015).

Key:
Type in all cases: biochemical
Human Tyk2 kinase domain = target: T1, Human Tyk2 kinase domain (Homo sapiens, UniProt P29597); experiment: Tyk2 Inhibition Assay (Omnia kinase fluorescence peptide substrate assay); settings: averaged IC50 ranges; assay of Example A; 10 μM (Km app) or 1 mM ATP, 2 nM Tyk2
T1 construct: comprising amino acids 886 to 1187 with 10 additional histidine residues; 10xHis (histidine tag) (C, cleaved yes); made in house
T1 sequence (P29597 886-1187): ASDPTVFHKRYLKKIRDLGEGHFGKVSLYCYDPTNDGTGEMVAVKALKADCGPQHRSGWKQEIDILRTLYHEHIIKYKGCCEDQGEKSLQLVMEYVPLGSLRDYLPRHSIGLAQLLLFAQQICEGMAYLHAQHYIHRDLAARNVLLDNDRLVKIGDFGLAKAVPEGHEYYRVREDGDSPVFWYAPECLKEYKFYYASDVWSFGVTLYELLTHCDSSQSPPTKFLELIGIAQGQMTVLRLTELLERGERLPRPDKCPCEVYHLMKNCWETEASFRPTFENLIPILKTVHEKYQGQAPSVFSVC
Outline: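 2 nM His-tag-cleaved kinase domain (aa 886–1187) with 8 μM Omnia Y12 peptide, 10 μM (Km app) or 1 mM ATP, pH 7.4 HEPES/10 mM MgCl2, 2% DMSO. Fluorescence (ex 360/em 485 nm) every 50 s for 45 min; IC50 from 4-parameter fit of POC, top dose 10 μM.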

JAK3 = target: T2, JAK3 (Homo sapiens, UniProt P52333); experiment: JAK3 Inhibition Assay (Omnia kinase fluorescence peptide substrate assay); settings: averaged IC50 ranges; assay of Example D; 10 μM (Km app) or 1 mM ATP, 2.5 nM JAK3
T2 construct: purchased Invitrogen Corporation, Carlsbad, Calif; PV4080
T2 sequence (P52333 1-1124): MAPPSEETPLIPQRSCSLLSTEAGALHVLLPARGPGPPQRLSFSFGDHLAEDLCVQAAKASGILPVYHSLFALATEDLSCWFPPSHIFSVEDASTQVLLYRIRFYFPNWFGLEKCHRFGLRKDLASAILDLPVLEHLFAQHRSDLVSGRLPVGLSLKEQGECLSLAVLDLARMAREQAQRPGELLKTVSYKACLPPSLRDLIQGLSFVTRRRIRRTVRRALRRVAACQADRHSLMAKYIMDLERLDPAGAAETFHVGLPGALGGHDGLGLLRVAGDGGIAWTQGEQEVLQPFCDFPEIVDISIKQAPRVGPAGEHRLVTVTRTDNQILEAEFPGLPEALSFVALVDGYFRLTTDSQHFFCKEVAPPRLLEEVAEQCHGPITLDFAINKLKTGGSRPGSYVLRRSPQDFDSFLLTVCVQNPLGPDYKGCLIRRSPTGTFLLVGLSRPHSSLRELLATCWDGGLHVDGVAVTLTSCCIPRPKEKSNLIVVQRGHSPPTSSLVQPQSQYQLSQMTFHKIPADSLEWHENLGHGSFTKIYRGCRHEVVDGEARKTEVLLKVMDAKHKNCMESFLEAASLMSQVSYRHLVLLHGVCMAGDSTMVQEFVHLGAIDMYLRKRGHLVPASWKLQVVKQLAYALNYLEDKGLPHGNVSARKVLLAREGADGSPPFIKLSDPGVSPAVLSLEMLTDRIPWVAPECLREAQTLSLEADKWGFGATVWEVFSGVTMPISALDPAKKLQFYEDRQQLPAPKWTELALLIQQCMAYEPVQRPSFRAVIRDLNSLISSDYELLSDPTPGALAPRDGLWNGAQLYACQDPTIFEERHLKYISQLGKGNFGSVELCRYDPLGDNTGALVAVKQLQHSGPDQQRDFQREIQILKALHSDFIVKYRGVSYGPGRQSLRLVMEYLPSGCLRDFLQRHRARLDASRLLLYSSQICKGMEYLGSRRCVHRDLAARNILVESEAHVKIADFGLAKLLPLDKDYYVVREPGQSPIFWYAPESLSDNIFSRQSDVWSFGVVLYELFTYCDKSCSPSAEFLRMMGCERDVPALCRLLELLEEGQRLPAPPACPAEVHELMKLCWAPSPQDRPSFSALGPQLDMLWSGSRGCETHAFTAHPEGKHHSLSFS
Outline: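 Kinase at 2.5 nM with 10 µM Omnia Y7 peptide and 10 µM (Km app) or 1 mM ATP in 25 mM HEPES pH 7.4, 10 mM MgCl2, 1 mM DTT, 0.01% Triton X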

JAK1 = target: T3, JAK1 (Homo sapiens, UniProt P23458); experiment: JAK1 Inhibition Assay (Omnia kinase fluorescence peptide substrate assay); settings: averaged IC50 ranges; assay of Example B; 40 μM (Km app) or 1 mM ATP, 15 nM JAK1
T3 construct: purchased Invitrogen Corporation, Carlsbad, Calif; PV4775
T3 sequence (P23458 whole entry): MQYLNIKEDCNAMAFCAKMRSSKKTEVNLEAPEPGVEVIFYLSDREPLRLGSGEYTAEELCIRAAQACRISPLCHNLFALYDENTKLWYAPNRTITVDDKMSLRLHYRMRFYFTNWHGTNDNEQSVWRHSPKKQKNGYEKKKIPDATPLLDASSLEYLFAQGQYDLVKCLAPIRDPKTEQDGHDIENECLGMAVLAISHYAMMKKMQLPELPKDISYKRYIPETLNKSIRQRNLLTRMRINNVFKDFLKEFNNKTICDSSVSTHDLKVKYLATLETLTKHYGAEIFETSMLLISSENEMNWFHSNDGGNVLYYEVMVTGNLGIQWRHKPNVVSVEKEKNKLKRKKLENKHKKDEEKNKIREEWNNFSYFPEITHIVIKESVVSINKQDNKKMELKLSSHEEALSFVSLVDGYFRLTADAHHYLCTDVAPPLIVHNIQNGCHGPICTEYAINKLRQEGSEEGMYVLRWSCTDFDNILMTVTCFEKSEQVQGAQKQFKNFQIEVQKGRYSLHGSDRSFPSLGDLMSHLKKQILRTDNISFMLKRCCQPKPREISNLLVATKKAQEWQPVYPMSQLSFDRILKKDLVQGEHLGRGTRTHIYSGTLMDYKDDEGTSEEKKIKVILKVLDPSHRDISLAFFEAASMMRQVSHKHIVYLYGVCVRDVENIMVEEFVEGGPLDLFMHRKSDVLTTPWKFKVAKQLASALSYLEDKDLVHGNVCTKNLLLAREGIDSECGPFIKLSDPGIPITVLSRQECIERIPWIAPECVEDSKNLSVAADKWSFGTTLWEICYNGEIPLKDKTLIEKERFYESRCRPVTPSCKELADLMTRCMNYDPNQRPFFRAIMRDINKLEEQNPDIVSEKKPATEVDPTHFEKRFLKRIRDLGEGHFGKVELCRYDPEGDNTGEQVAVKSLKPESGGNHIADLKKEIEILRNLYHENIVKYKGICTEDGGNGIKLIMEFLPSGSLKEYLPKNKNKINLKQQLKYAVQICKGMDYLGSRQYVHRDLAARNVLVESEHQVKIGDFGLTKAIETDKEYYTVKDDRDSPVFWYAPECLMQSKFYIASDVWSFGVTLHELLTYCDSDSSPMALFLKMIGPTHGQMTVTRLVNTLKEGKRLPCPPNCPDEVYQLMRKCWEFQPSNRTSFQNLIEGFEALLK

JAK2 = target: T4, JAK2 (Homo sapiens, UniProt O60674); experiment: JAK2 Inhibition Assay (Omnia kinase fluorescence peptide substrate assay); settings: averaged IC50 ranges; assay of Example C; 25 μM (Km app) or 1 mM ATP, 5 nM JAK2
T4 construct: purchased Invitrogen Corporation, Carlsbad, Calif; PV4288
T4 sequence (O60674 whole entry): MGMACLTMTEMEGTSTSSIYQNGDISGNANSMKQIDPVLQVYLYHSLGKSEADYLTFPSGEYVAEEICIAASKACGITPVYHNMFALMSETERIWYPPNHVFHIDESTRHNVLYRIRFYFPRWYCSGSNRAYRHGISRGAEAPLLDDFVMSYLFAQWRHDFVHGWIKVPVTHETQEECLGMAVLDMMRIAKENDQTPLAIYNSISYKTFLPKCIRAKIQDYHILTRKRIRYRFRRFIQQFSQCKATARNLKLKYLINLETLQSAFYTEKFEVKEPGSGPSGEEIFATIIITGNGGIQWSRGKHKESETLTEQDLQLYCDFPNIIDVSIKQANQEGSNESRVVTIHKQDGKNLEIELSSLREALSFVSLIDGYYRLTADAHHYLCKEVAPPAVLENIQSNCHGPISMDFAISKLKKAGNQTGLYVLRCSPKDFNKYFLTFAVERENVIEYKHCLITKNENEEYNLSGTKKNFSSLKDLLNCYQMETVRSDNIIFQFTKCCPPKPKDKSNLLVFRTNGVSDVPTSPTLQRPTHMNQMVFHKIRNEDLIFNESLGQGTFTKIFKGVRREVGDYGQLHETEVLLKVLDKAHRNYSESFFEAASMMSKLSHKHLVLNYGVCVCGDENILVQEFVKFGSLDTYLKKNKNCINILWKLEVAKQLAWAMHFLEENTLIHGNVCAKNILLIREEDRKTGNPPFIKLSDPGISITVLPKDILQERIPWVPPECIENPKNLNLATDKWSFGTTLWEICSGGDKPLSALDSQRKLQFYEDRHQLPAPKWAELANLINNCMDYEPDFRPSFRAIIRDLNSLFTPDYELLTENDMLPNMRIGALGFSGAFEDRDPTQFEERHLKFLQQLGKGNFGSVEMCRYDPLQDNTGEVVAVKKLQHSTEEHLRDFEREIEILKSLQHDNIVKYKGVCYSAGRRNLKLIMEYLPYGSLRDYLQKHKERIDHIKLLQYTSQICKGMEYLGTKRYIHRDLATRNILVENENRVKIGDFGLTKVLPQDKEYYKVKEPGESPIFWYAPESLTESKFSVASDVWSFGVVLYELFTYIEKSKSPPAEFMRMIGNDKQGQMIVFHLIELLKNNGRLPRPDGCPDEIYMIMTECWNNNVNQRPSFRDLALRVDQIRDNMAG
Outline: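 A 10-point, 3-fold compound series (top 10 μM, 2% DMSO) was tested against 5 nM JAK2 with 10 μM Omnia Y7 substrate and either 1 mM or 25 μM (Km app) ATP. Buffer: pH 7.4 HEPES, MgCl2, Triton X-100, DTT. Sox fluorescence was monitored kinetically for 45 min; IC50 is the concentration giving 50 POC on a 4-parameter fit.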

SMILES	IC50 (Human Tyk2 kinase domain) [nM]	IC50 (JAK3) [nM]	IC50 (JAK1) [nM]	IC50 (JAK2) [nM]
CS(=O)(=O)CCn1cc(-c2cc3nccn3c(-c3ccn(C4(CC#N)CN(CC(F)(F)F)C4)n3)n2)cn1 [Example 143, 2-(3-(3-(7-(1-(2-(methylsulfonyl)ethyl)-1H-pyrazol-4-yl)imidazo[1,2-c]pyrimidin-5-yl)-1H-pyrazol-1-yl)-1-(2,2,2-trifluoroethyl)azetidin-3-yl)acetonitrile]	< 10	> 1000	100 to 1000	10 to 100
N#CCC(C1CC1)n1cc(-c2nc(-c3ccc4c(c3)CNCC4)cc3nccn23)cn1 (stereo not shown) [Example 54, 3-Cyclopropyl-3-(4-(7-(1,2,3,4-tetrahydroisoquinolin-7-yl)imidazo[1,2-c]pyrimidin-5-yl)-1H-pyrazol-1-yl)propanenitrile]	< 10	100 to 1000	10 to 100	10 to 100
CN1CCN(CCn2cc(-c3cc4nccn4c(-c4cnn(C(CC#N)C5CC5)c4)n3)cn2)CC1 (stereo not shown) [Example 44, 3-cyclopropyl-3-(4-(7-(1-(2-(4-methylpiperazin-1-yl)ethyl)-1H-pyrazol-4-yl)imidazo[1,2-c]pyrimidin-5-yl)-1H-pyrazol-1-yl)propanenitrile]	10 to 100	100 to 1000	100 to 1000	10 to 100
CN1CCN(c2ccc(-c3cc4nccn4c(-c4cnn(C5(CC#N)CN(CC(F)(F)F)C5)c4)n3)cc2)CC1 [Example 137, 2-(3-(4-(7-(4-(4-methylpiperazin-1-yl)phenyl)imidazo[1,2-c]pyrimidin-5-yl)-1H-pyrazol-1-yl)-1-(2,2,2-trifluoroethyl)azetidin-3-yl)acetonitrile]	< 10	100 to 1000	10 to 100	10 to 100
Cn1cc(-c2cc3nccn3c(-c3cnn(C4(CC#N)CN(S(=O)(=O)C5CCCCC5)C4)c3)n2)cn1 [Example 94, 2-(1-(cyclohexylsulfonyl)-3-(4-(7-(1-methyl-1H-pyrazol-4-yl)imidazo[1,2-c]pyrimidin-5-yl)-1H-pyrazol-1-yl)azetidin-3-yl)acctonitrile]	10 to 100	> 1000	> 1000	100 to 1000
CCCN1CCC(CC#N)(n2cc(-c3nc(-c4cnn(C)c4)cc4nccn34)cn2)CC1 [Example 30, 2-(4-(4-(7-(1-methyl-1H-pyrazol-4-yl)imidazo[1,2-c]pyrimidin-5-yl)-1H-pyrazol-1-yl)-1-propylpiperidin-4-yl)acetonitrile]	100 to 1000	> 1000	> 1000	> 1000
Cc1ncc(-c2cc3nccn3c(-c3cnn(C4(CC#N)CN(S(=O)(=O)C(F)(F)F)C4)c3)n2)s1 [Example 139, 2-(3-(4-(7-(2-methylthiazol-5-yl)imidazo[1,2-c]pyrimidin-5-yl)-1H-pyrazol-1-yl)-1-(trifluoromethylsulfonyl)azetidin-3-yl)acetonitrile]	< 10	> 1000	10 to 100	10 to 100

The next lines start with the values.

IC50 (Human Tyk2 kinase domain) [nM]	IC50 (JAK3) [nM]	IC50 (JAK1) [nM]	IC50 (JAK2) [nM]	SMILES
10 to 100	100 to 1000	> 1000	100 to 1000	Cn1cc(-c2cc3nccn3c(-c3ccn(C(CC#N)C4CC4)n3)n2)cn1 (stereo not shown) [Example 132, 3-Cyclopropyl-3-(3-(7-(1-methyl-1H-pyrazol-4-yl)imidazo[1,2-c]pyrimidin-5-yl)-1H-pyrazol-1-yl)propanenitrile]
10 to 100	> 1000	> 1000	100 to 1000	Cn1cc(-c2cc3nccn3c(-c3cnn(C4(CC#N)CN(C(CF)CF)C4)c3)n2)cn1 [Example 79, 2-(1-(1,3-difluoropropan-2-yl)-3-(4-(7-(1-methyl-1H-pyrazol-4-yl)imidazo[1,2-c]pyrimidin-5-yl)-1H-pyrazol-1-yl)azetidin-3-yl)acetonitrile]
< 10	100 to 1000	10 to 100	10 to 100	Cn1cc(-c2cc3nccn3c(-c3cnn(C(CC#N)c4ccccc4)c3)n2)cn1 (stereo not shown) [Example 11, 3-(4-(7-(1-methyl-1H-pyrazol-4-yl)imidazo[1,2-c]pyrimidin-5-yl)-1H-pyrazol-1-yl)-3-phenylpropanenitrile]
< 10	100 to 1000	10 to 100	10 to 100	Cn1cc(-c2cc3nccn3c(-c3cnn(C(CC#N)c4cncc(Br)c4)c3)n2)cn1 (stereo not shown) [Example 10, 3-(5-bromopyridin-3-yl)-3-(4-(7-(1-methyl-1H-pyrazol-4-yl)imidazo[1,2-c]pyrimidin-5-yl)-1H-pyrazol-1-yl)propanenitrile]
10 to 100	> 1000	100 to 1000	100 to 1000	Cn1cc(-c2cc3nccn3c(-c3cnn(C4(CC#N)CN(S(=O)(=O)c5ccccc5)C4)c3)n2)cn1 [Example 99, 2-(3-(4-(7-(1-methyl-1H-pyrazol-4-yl)imidazo[1,2-c]pyrimidin-5-yl)-1H-pyrazol-1-yl)-1-(phenylsulfonyl)azetidin-3-yl)acetonitrile]
10 to 100	100 to 1000	10 to 100	10 to 100	Cn1cc(-c2cc3nccn3c(-c3cnn(C(CC#N)c4ccccc4Cl)c3)n2)cn1 (stereo not shown) [Example 12, 3-(2-chlorophenyl)-3-(4-(7-(1-methyl-1H-pyrazol-4-yl)imidazo[1,2-c]pyrimidin-5-yl)-1H-pyrazol-1-yl)propanenitrile]
10 to 100	> 1000	100 to 1000	100 to 1000	Cn1cc(-c2cc3nccn3c(-c3cnn(C4(CC#N)CN(C5CC5)C4)c3)n2)cn1 [Example 66, 2-(1-Cyclopropyl-3-(4-(7-(1-methyl-1H-pyrazol-4-yl)imidazo[1,2-c]pyrimidin-5-yl)-1H-pyrazol-1-yl)azetidin-3-yl)acetonitrile]
10 to 100	> 1000	> 1000	100 to 1000	N#CCC(C1CC1)n1cc(-c2nc(-c3cnco3)cc3nccn23)cn1 (stereo not shown) [Example 43, 3-cyclopropyl-3-(4-(7-(oxazol-5-yl)imidazo[1,2-c]pyrimidin-5-yl)-1H-pyrazol-1-yl)propanenitrile]
< 10	100 to 1000	100 to 1000	10 to 100	N#CCC(C1CC1)n1cc(-c2nc(-c3cnn(C4CCOCC4)c3)cc3nccn23)cn1 (stereo not shown) [Example 36, 3-cyclopropyl-3-(4-(7-(1-(tetrahydro-2H-pyran-4-yl)-1H-pyrazol-4-yl)imidazo[1,2-c]pyrimidin-5-yl)-1H-pyrazol-1-yl)propanenitrile]
